The results in this text go back to ChEMBL document CHEMBL1649369, “Novel 4-aryl-pyrido[1,2-c]pyrimidines with dual SSRI and 5-HT(1A) activity. part 3” (Eur J Med Chem, 2011).

Molecules are shown by their SMILES. pKi: −log10 of the molar value. The source made the active and inactive calls. The rule behind the calls is not given here.

Sequence of Sodium-dependent serotonin transporter (P31652 whole entry): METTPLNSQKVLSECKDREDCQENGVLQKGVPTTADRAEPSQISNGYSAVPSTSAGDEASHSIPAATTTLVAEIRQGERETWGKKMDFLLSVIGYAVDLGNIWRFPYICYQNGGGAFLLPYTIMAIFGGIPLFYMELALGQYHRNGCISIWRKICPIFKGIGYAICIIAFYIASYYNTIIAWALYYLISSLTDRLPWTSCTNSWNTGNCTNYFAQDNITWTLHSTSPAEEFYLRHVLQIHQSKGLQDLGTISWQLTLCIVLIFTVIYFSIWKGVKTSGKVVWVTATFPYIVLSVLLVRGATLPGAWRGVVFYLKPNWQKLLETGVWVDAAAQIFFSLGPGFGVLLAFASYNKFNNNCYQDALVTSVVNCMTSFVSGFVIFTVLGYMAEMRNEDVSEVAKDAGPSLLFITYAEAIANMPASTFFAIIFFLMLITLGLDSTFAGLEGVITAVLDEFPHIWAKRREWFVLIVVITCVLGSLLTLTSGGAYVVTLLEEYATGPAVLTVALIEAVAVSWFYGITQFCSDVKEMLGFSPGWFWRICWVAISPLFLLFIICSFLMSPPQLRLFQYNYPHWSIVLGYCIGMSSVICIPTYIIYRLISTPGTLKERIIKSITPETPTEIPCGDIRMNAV

The test system of one assay is Mus musculus. The assay is described as follows: Effect on hypothermia in Swiss albino mouse assessed as change in rectal body temperature at 20 mg/kg, ip after 30 mins by inducible hypothermia test. The format is functional, organism-based. Also noted: dose 20 mg/kg.
Take `O=c1c(-c2ccccc2Cl)c2n(c(=O)n1CCCCN1CCC(c3c[nH]c4ccccc34)CC1)CCCC2`: the deltaT is -1 °C.
Take `Cc1ccc(-c2c3n(c(=O)n(CCCCN4CCC(c5c[nH]c6ccccc56)CC4)c2=O)CCCC3)cc1`: the deltaT is -1.3 °C.
Turning to `COc1ccc(-c2c3n(c(=O)n(CCCCN4CCC(c5c[nH]c6ccccc56)CC4)c2=O)CCCC3)cc1`, the deltaT is -1.6 °C.

A further assay relates to Mus musculus. Description: Effect on hypothermia in Swiss albino mouse assessed as change in rectal body temperature at 10 mg/kg, ip after 30 mins by inducible hypothermia test. The format is functional, organism-based. Also noted: dose 10 mg/kg.
Consider `O=c1c(-c2ccccc2Cl)c2n(c(=O)n1CCCCN1CCC(c3c[nH]c4ccccc34)CC1)CCCC2`, for which the deltaT was -0.7 °C.
Still for that read-out and setting: for `Cc1ccc(-c2c3n(c(=O)n(CCCCN4CCC(c5c[nH]c6ccccc56)CC4)c2=O)CCCC3)cc1` the value was -0.6 °C; for `COc1ccc(-c2c3n(c(=O)n(CCCCN4CCC(c5c[nH]c6ccccc56)CC4)c2=O)CCCC3)cc1`, -0.8 °C.

The next assay concerns Mus musculus. Description: Effect on hypothermia in Swiss albino mouse assessed as change in rectal body temperature at 20 mg/kg, ip after 120 mins by inducible hypothermia test. Also noted: dose 20 mg/kg. The format is functional, organism-based.
Take `O=c1c(-c2ccccc2Cl)c2n(c(=O)n1CCCCN1CCC(c3c[nH]c4ccccc34)CC1)CCCC2`: the deltaT is -0.1 °C.
`Cc1ccc(-c2c3n(c(=O)n(CCCCN4CCC(c5c[nH]c6ccccc56)CC4)c2=O)CCCC3)cc1`: the deltaT was -0.3 °C.
As for `COc1ccc(-c2c3n(c(=O)n(CCCCN4CCC(c5c[nH]c6ccccc56)CC4)c2=O)CCCC3)cc1`, the deltaT was -0.3 °C.

Another assay has as its system Mus musculus. Description: Effect on hypothermia in Swiss albino mouse assessed as change in rectal body temperature at 10 mg/kg, ip after 60 mins by inducible hypothermia test. Format: functional, organism-based. Also noted: dose 10 mg/kg.
Regarding `O=c1c(-c2ccccc2Cl)c2n(c(=O)n1CCCCN1CCC(c3c[nH]c4ccccc34)CC1)CCCC2`, the deltaT is -0.2 °C.
`Cc1ccc(-c2c3n(c(=O)n(CCCCN4CCC(c5c[nH]c6ccccc56)CC4)c2=O)CCCC3)cc1`: the deltaT is -0.3 °C.
Same read-out and setting: for `COc1ccc(-c2c3n(c(=O)n(CCCCN4CCC(c5c[nH]c6ccccc56)CC4)c2=O)CCCC3)cc1` the value was -0.5 °C.

The subject of another assay is Mus musculus. Description: Effect on hypothermia in Swiss albino mouse assessed as change in rectal body temperature at 5 mg/kg, ip after 60 mins by inducible hypothermia test. The format is functional, organism-based. Also noted: dose 5 mg/kg.
`O=c1c(-c2ccccc2Cl)c2n(c(=O)n1CCCCN1CCC(c3c[nH]c4ccccc34)CC1)CCCC2`: the deltaT is -0.2 °C.
In the case of `Cc1ccc(-c2c3n(c(=O)n(CCCCN4CCC(c5c[nH]c6ccccc56)CC4)c2=O)CCCC3)cc1`, the deltaT was -0.4 °C.
On the same count and under the same terms, for `COc1ccc(-c2c3n(c(=O)n(CCCCN4CCC(c5c[nH]c6ccccc56)CC4)c2=O)CCCC3)cc1` the value was -0.2 °C.

The next assay concerns the target T1, 5-hydroxytryptamine receptor 1A (Rattus norvegicus, UniProt P19327).
T1 sequence (P19327 whole entry): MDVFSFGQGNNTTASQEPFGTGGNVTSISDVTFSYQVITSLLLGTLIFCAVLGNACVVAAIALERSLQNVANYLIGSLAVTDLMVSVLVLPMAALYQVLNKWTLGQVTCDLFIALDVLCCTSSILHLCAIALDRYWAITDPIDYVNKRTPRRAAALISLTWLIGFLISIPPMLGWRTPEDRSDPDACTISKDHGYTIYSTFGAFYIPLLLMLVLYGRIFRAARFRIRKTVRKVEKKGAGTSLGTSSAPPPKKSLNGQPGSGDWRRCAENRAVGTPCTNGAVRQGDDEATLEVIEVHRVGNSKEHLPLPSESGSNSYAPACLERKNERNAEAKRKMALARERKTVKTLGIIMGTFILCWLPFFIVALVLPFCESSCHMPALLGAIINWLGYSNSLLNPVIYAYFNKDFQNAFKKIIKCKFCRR
The assay is described as follows: Displacement of [3H]8-OH-DPAT from 5-HT1A receptor in rat hippocampus. The format is tissue-based. Background: Displacement assays read how much labelled ligand stays bound in the presence of the test substance.
Consider `O=c1c(-c2ccccc2Cl)c2n(c(=O)n1CCCCN1CCC(c3c[nH]c4ccccc34)CC1)CCCC2`, for which the pKi – broadly, −log10 of the Ki, conventionally taken in molar units – is 7.21.
For the compound `Cc1ccc(-c2c3n(c(=O)n(CCCCN4CCC(c5c[nH]c6ccccc56)CC4)c2=O)CCCC3)cc1`, the pKi was 7.34.
The compound `COc1ccc(-c2c3n(c(=O)n(CCCCN4CCC(c5c[nH]c6ccccc56)CC4)c2=O)CCCC3)cc1` had a pKi of 7.49.

The next assay deals with Mus musculus. Description: Antidepressant activity in Swiss albino mouse assessed as total immobility time at 20 mg/kg, ip administered 30 mins before test measured 6 mins test session after 2 mins habituation period by forced swimming test. Also noted: dose 20 mg/kg. Format: functional, organism-based.
With `Cc1ccc(-c2c3n(c(=O)n(CCCCN4CCC(c5c[nH]c6ccccc56)CC4)c2=O)CCCC3)cc1`, the result was inactive.
Turning to `COc1ccc(-c2c3n(c(=O)n(CCCCN4CCC(c5c[nH]c6ccccc56)CC4)c2=O)CCCC3)cc1`, the outcome was inactive.

In a further assay the test system is Mus musculus. The assay is described as follows: Effect on hypothermia in Swiss albino mouse assessed as change in rectal body temperature at 10 mg/kg, ip after 90 mins by inducible hypothermia test. Format: functional, organism-based. The arrangement: dose 10 mg/kg.
Turning to `O=c1c(-c2ccccc2Cl)c2n(c(=O)n1CCCCN1CCC(c3c[nH]c4ccccc34)CC1)CCCC2`, the deltaT was -0.1 °C.
For `Cc1ccc(-c2c3n(c(=O)n(CCCCN4CCC(c5c[nH]c6ccccc56)CC4)c2=O)CCCC3)cc1`, the deltaT was -0.2 °C.
Regarding `COc1ccc(-c2c3n(c(=O)n(CCCCN4CCC(c5c[nH]c6ccccc56)CC4)c2=O)CCCC3)cc1`, the deltaT was -0.3 °C.

Another assay deals with Mus musculus. The assay is described as follows: Effect on hypothermia in Swiss albino mouse assessed as change in rectal body temperature at 20 mg/kg, ip dosed 15 mins after 0.1 mg/kg, sc WAY 100635 challenge measured after 60 mins by inducible hypothermia test. Format: functional, organism-based.
On to `Cc1ccc(-c2c3n(c(=O)n(CCCCN4CCC(c5c[nH]c6ccccc56)CC4)c2=O)CCCC3)cc1`, for which the deltaT is -0.2 °C.
For `COc1ccc(-c2c3n(c(=O)n(CCCCN4CCC(c5c[nH]c6ccccc56)CC4)c2=O)CCCC3)cc1`, the deltaT is -0.2 °C.

The next assay addresses Sodium-dependent serotonin transporter (Rattus norvegicus, UniProt P31652). The assay is described as follows: Displacement of [3H]citalopram from SERT in rat cerebral cortex by liquid scintillation counting. Format: tissue-based.
The compound `O=c1c(-c2ccccc2Cl)c2n(c(=O)n1CCCCN1CCC(c3c[nH]c4ccccc34)CC1)CCCC2` gave a pKi of 6.83.
Same read-out and setting: for `Cc1ccc(-c2c3n(c(=O)n(CCCCN4CCC(c5c[nH]c6ccccc56)CC4)c2=O)CCCC3)cc1` the value was 7.37.
As for `COc1ccc(-c2c3n(c(=O)n(CCCCN4CCC(c5c[nH]c6ccccc56)CC4)c2=O)CCCC3)cc1`, the pKi is 7.30.

For a further assay, the system named is Mus musculus. Description: Effect on hypothermia in Swiss albino mouse assessed as change in rectal body temperature at 20 mg/kg, ip dosed 15 mins after 0.1 mg/kg, sc WAY 100635 challenge measured after 30 mins by inducible hypothermia test. The format is functional, organism-based.
For `Cc1ccc(-c2c3n(c(=O)n(CCCCN4CCC(c5c[nH]c6ccccc56)CC4)c2=O)CCCC3)cc1`, the deltaT is -0.4 °C.
As for `COc1ccc(-c2c3n(c(=O)n(CCCCN4CCC(c5c[nH]c6ccccc56)CC4)c2=O)CCCC3)cc1`, the deltaT was -0.3 °C.

For the next assay, the system named is Mus musculus. The assay is described as follows: Effect on hypothermia in Swiss albino mouse assessed as change in rectal body temperature at 5 mg/kg, ip after 90 mins by inducible hypothermia test. The arrangement: dose 5 mg/kg. The format is functional, organism-based.
Consider `O=c1c(-c2ccccc2Cl)c2n(c(=O)n1CCCCN1CCC(c3c[nH]c4ccccc34)CC1)CCCC2`, for which the deltaT is -0.2 °C.
For the compound `Cc1ccc(-c2c3n(c(=O)n(CCCCN4CCC(c5c[nH]c6ccccc56)CC4)c2=O)CCCC3)cc1`, the deltaT is -0.3 °C.
Regarding `COc1ccc(-c2c3n(c(=O)n(CCCCN4CCC(c5c[nH]c6ccccc56)CC4)c2=O)CCCC3)cc1`, the deltaT is -0.2 °C.

The test system of a further assay is Mus musculus. Description: Effect on hypothermia in Swiss albino mouse assessed as change in rectal body temperature at 5 mg/kg, ip after 30 mins by inducible hypothermia test. Also noted: dose 5 mg/kg. The format is functional, organism-based.
For `O=c1c(-c2ccccc2Cl)c2n(c(=O)n1CCCCN1CCC(c3c[nH]c4ccccc34)CC1)CCCC2`, the deltaT was -0.5 °C.
As for `Cc1ccc(-c2c3n(c(=O)n(CCCCN4CCC(c5c[nH]c6ccccc56)CC4)c2=O)CCCC3)cc1`, the deltaT is -0.5 °C.
As for `COc1ccc(-c2c3n(c(=O)n(CCCCN4CCC(c5c[nH]c6ccccc56)CC4)c2=O)CCCC3)cc1`, the deltaT is -0.6 °C.

The next assay relates to Mus musculus. Description: Antidepressant activity in Swiss albino mouse assessed as total immobility time at 10 mg/kg, ip administered 30 mins before test measured 6 mins test session after 2 mins habituation period by forced swimming test. The format is functional, organism-based. Also noted: dose 10 mg/kg.
On to `Cc1ccc(-c2c3n(c(=O)n(CCCCN4CCC(c5c[nH]c6ccccc56)CC4)c2=O)CCCC3)cc1`, for which the outcome was inactive.
Still for that read-out and setting: for `COc1ccc(-c2c3n(c(=O)n(CCCCN4CCC(c5c[nH]c6ccccc56)CC4)c2=O)CCCC3)cc1` the value was “inactive”.

A further assay concerns Mus musculus. Description: Effect on hypothermia in Swiss albino mouse assessed as change in rectal body temperature at 5 mg/kg, ip after 120 mins by inducible hypothermia test. The format is functional, organism-based. Also noted: dose 5 mg/kg.
In the case of `O=c1c(-c2ccccc2Cl)c2n(c(=O)n1CCCCN1CCC(c3c[nH]c4ccccc34)CC1)CCCC2`, the deltaT was -0.1 °C.
Same read-out and setting: for `Cc1ccc(-c2c3n(c(=O)n(CCCCN4CCC(c5c[nH]c6ccccc56)CC4)c2=O)CCCC3)cc1` the value was -0.2 °C.
Turning to `COc1ccc(-c2c3n(c(=O)n(CCCCN4CCC(c5c[nH]c6ccccc56)CC4)c2=O)CCCC3)cc1`, the deltaT is -0.2 °C.

The subject of a further assay is Mus musculus. Description: Effect on hypothermia in Swiss albino mouse assessed as change in rectal body temperature at 20 mg/kg, ip after 90 mins by inducible hypothermia test. Format: functional, organism-based. The arrangement: dose 20 mg/kg.
Take `O=c1c(-c2ccccc2Cl)c2n(c(=O)n1CCCCN1CCC(c3c[nH]c4ccccc34)CC1)CCCC2`: the deltaT was -0.2 °C.
As to `Cc1ccc(-c2c3n(c(=O)n(CCCCN4CCC(c5c[nH]c6ccccc56)CC4)c2=O)CCCC3)cc1`, the deltaT was -0.4 °C.
Consider `COc1ccc(-c2c3n(c(=O)n(CCCCN4CCC(c5c[nH]c6ccccc56)CC4)c2=O)CCCC3)cc1`, for which the deltaT is -0.5 °C.

The subject of a further assay is Mus musculus. Description: Effect on hypothermia in Swiss albino mouse assessed as change in rectal body temperature at 10 mg/kg, ip after 120 mins by inducible hypothermia test. The format is functional, organism-based. The arrangement: dose 10 mg/kg.
Consider `O=c1c(-c2ccccc2Cl)c2n(c(=O)n1CCCCN1CCC(c3c[nH]c4ccccc34)CC1)CCCC2`, for which the deltaT worked out at 0 °C.
Take `Cc1ccc(-c2c3n(c(=O)n(CCCCN4CCC(c5c[nH]c6ccccc56)CC4)c2=O)CCCC3)cc1`: the deltaT was -0.1 °C.
Same read-out and setting: for `COc1ccc(-c2c3n(c(=O)n(CCCCN4CCC(c5c[nH]c6ccccc56)CC4)c2=O)CCCC3)cc1` the value was -0.2 °C.

In another assay the test system is Mus musculus. The assay is described as follows: Effect on hypothermia in Swiss albino mouse assessed as change in rectal body temperature at 20 mg/kg, ip after 60 mins by inducible hypothermia test. The format is functional, organism-based. The arrangement: dose 20 mg/kg.
Take `O=c1c(-c2ccccc2Cl)c2n(c(=O)n1CCCCN1CCC(c3c[nH]c4ccccc34)CC1)CCCC2`: the deltaT is -0.6 °C.
On to `Cc1ccc(-c2c3n(c(=O)n(CCCCN4CCC(c5c[nH]c6ccccc56)CC4)c2=O)CCCC3)cc1`, for which the deltaT is -0.9 °C.
For `COc1ccc(-c2c3n(c(=O)n(CCCCN4CCC(c5c[nH]c6ccccc56)CC4)c2=O)CCCC3)cc1`, the deltaT was -0.9 °C.
